Reference: patent US4139621A, “N-(4-substituted-3,5-dichloro-phenyl)-piperazines” (Beecham Group Limited, priority 1976, dated 1979)

Key:
[1] = Induction of catalepsy in the rat; format: in vivo
Experimental: (§1) 1-(3,4,5-Trichlorophenyl)piperazine hydrochloride [compound A] was tested in various conventional screens used for determining the effect of major tranquillizors. In these tests chlopromazine was used as a positive control. The results obtained were as follows:
catalepsy in 0% at 54% at
the rat. 40 mg/kg s.c. 10 mg/kg i.p.
(§2) The activity of Compound A in the anti-catapresan induced fighting test and the inhibition of conditioned avoidance responses in the shuttlebox tests indicate that Compound A has potential neuroleptic/anxiolytic activity in man.

[2] = Shuttlebox (conditioned avoidance behaviour in the rat), % inhibition of crossing rate; format: in vivo
Experimental: as §1, §2

[3] = Anti-Catapresan test (anti-catapresan induced fighting test); format: in vivo; conditions: po; mouse
Experimental: as §1, §2

[4] = Activity in man extrapolated from potency relative to chlorpromazine in animal tests; conditions: orally, inferred from potency relative to chlorpromazine in animal tests
Excerpt: as §2

Row | SMILES | Induction of catalepsy ([1]; 10 mg/kg i.p.) [%] | % inhibition of crossing rate, Shuttlebox ([2]; 10 mg/kg p.o.) [%] | ED50 [3] [mg/kg] | cataleptic activity [1] | Induction of catalepsy ([1]; 40 mg/kg s.c.) [%] | % inhibition of crossing rate, Shuttlebox ([2]; 5 mg/kg p.o.) [%] | daily doses at which active in man [4] [mg/kg]
1 | CN(C)CCCN1c2ccccc2Sc2ccc(Cl)cc21 [Chlorpromazine, chlorpromazine, reference compound] | 54 | -67 | 2.8 |  |  |  | 
2 | Cl.Clc1cc(N2CCNCC2)cc(Cl)c1Cl [Compound A, 1-(3,4,5-Trichlorophenyl)piperazine hydrochloride] |  |  | 6 | lack of cataleptic activity | 0 | -73 | 0.2 to 10
